Laboratory results reported in PubChem BioAssay (NCI).
Several values for one entry are separate records, joined by “and”; a condition that tells them apart may be missing. Identical values can stand only once.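 Five concentrations, 48 hours, 96-well plates. Here, GI50 denotes the concentration required for 50% inhibition of growth. TGI: concentration producing complete growth inhibition.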

Columns and labels:
Test in all cases: NCI anticancer screen, dose series, 48 h
HT29 colon = test system: HT29 colon
NCI-H460 lung = test system: NCI-H460 lung
HOP-62 NSCLC = test system: HOP-62 NSCLC
COLO 205 colon = test system: COLO 205 colon
HL-60(TB) leukemia = test system: HL-60(TB) leukemia
HCC-2998 colon = test system: HCC-2998 colon
OVCAR-3 ovarian = test system: OVCAR-3 ovarian
SF-539 CNS = test system: SF-539 CNS
A498 renal = test system: A498 renal
K-562 leukemia = test system: K-562 leukemia
DU-145 prostate = test system: DU-145 prostate

Compound	TGI (HT29 colon)	TGI (NCI-H460 lung)	TGI (HOP-62 NSCLC)	TGI (COLO 205 colon)	TGI (HL-60(TB) leukemia)	TGI (HCC-2998 colon)	TGI (OVCAR-3 ovarian)	TGI (SF-539 CNS)	TGI (A498 renal)	TGI (K-562 leukemia)	TGI (DU-145 prostate)	GI50 (HT29 colon)	GI50 (NCI-H460 lung)	GI50 (HOP-62 NSCLC)	GI50 (COLO 205 colon)	GI50 (DU-145 prostate)	GI50 (SF-539 CNS)
CN(C)CCNC(=O)c1ccc(NCCCN(C)CCCNc2ccc(C(=O)NCCN(C)C)c3[nH]c4ccccc4c(=O)c23)c2c(=O)c3ccccc3[nH]c12	0.236 µM	0.12 µM	0.459 µM	0.294 µM	0.659 µM	0.177 µM	0.694 µM	2.24 µM	0.502 µM	–	–	–	–	–	–	–	–
O=C1c2ccccc2C(=O)c2cc(N=Nc3c(O)ccc4ccccc34)ccc21	> 100 µM	–	> 100 µM	> 100 µM	–	–	> 100 µM	–	> 100 µM	> 100 µM	> 100 µM	–	–	–	–	–	–
CCCC(CCC(N)=O)(CCC(N)=O)[N+](=O)[O-]	> 100 µM	> 100 µM	–	> 100 µM	> 100 µM	–	–	> 100 µM	–	> 100 µM	> 100 µM	–	–	–	–	–	–
c1ccc2c(c1)c1c(n2CCOCCN2CCCC2)CCCC1	47.5 µM	30.5 µM	28.9 µM	38.2 µM	30.4 µM	30.2 µM	> 100 µM	29.9 µM	–	31.5 µM	87.2 µM	–	–	–	–	–	–
C=CCC1CC(n2cc(C)c(=O)[nH]c2=O)OC1CO[Si](C)(C)C(C)(C)C (stereo not given)	30.9 µM	38.9 µM	34.7 µM	27 µM	–	35.5 µM	31 µM	28.3 µM	34.5 µM	24.3 µM	31.1 µM	–	–	–	–	–	–
N#CN/C(N)=N/C/N=C(\N)NC#N	> 100 µM	> 100 µM	> 100 µM	> 100 µM	> 100 µM	> 100 µM	> 100 µM	> 100 µM	> 100 µM	> 100 µM	–	–	–	–	–	–	–
CN1CN(c2ccccc2)C2(CCN(CC(C)(c3ccc(F)cc3)C3OCCCO3)CC2)C1=O (stereo not given)	27.3 µM	–	30.7 µM	44.3 µM	33.7 µM	–	24.5 µM	26.5 µM	–	38.6 µM	> 100 µM	–	–	–	–	–	–
O=C1CC(c2ccccc2)C2(C(=O)NC(=S)NC2=O)C(c2ccccc2)C1 (stereo not given)	> 75 µM	> 75 µM	> 75 µM	> 75 µM	> 75 µM	> 75 µM	> 75 µM	> 75 µM	–	> 75 µM	> 75 µM	–	–	–	–	–	–
O=C(O)Cc1ccc(Nc2nc3cc(C(F)(F)F)ccc3nc2C(=O)O)cc1	> 100 µM	> 100 µM	> 100 µM	> 100 µM	> 100 µM	–	> 100 µM	> 100 µM	> 100 µM	–	> 100 µM	–	–	–	–	–	–
CCOC(=O)c1[nH]c(Br)c(-c2ccc(OC)c(OC)c2)c1Br	0.0667 µM and 0.308 µM	> 100 µM	14.8 µM	1.07 µM	1.99 µM	–	–	0.0428 µM and 0.0128 µM	0.194 µM	12.7 µM	4.65 µM and 18.3 µM	0.0258 µM	19.2 µM	0.0253 µM	0.02 µM	0.0155 µM	0.0116 µM
Brc1ccc(C[P+]2(c3ccccc3)CCCCC2)cc1	> 100 µM	> 100 µM	> 100 µM	> 100 µM	75.8 µM	> 100 µM	> 100 µM	> 100 µM	> 100 µM	> 100 µM	–	–	–	–	–	–	–
C#C/C=C\CCCC/C=C\C#CC#CCCCC#CC#C[C@H](COS(=O)(=O)O)OS(=O)(=O)O	> 100 µM	> 100 µM	> 100 µM	> 100 µM	> 100 µM	> 100 µM	> 100 µM	> 100 µM	–	–	> 100 µM	–	–	–	–	–	–
Cc1c2c3ccccc3nc-2n(C)c2ccccc12	11.6 µM	2.85 µM	31.9 µM	–	–	11.4 µM	5.69 µM	10.8 µM	–	5.28 µM	29.6 µM	–	–	–	–	–	–
NC(=S)/N=C(/c1nc2ccc(Cl)cc2[nH]c1=O)C(O)c1ccccc1Cl (stereo not given)	> 100 µM	> 100 µM	> 100 µM	> 100 µM	> 100 µM	> 100 µM	–	> 100 µM	> 100 µM	> 100 µM	–	–	–	–	–	–	–
O=[N+]([O-])c1ccc2c(c1)N([O-])C1(CCCCC1)[N+]2=O	43.3 µM	37 µM	31 µM	27.1 µM	> 100 µM	32.8 µM	51 µM	33.6 µM	–	> 100 µM	33.9 µM	–	–	–	–	–	–
Cc1nc(CC#N)n[nH]1	> 100 µM	–	> 100 µM	> 100 µM	–	> 100 µM	> 100 µM	> 100 µM	–	> 100 µM	> 100 µM	–	–	–	–	–	–
CCOC(=O)c1nnsc1N/N=C\c1ccc([N+](=O)[O-])cc1	> 100 µM	> 100 µM	> 100 µM	> 100 µM	–	> 100 µM	> 100 µM	–	–	> 100 µM	> 100 µM	–	–	–	–	–	–
CS(=O)(=O)c1nc(-c2cc3c(c(S(C)(=O)=O)n2)CCCC3)cc2c1CCCCC2	> 100 µM	–	> 100 µM	> 100 µM	> 100 µM	–	> 100 µM	–	–	–	> 100 µM	–	–	–	–	–	–
Cc1ccc(NC=O)c(-c2c(N)[nH]c(=S)[nH]c2=O)c1	> 100 µM	–	> 100 µM	> 100 µM	> 100 µM	–	> 100 µM	> 100 µM	> 100 µM	> 100 µM	> 100 µM	–	–	–	–	–	–
COc1ccc(-n2[nH]nc(C(N)=O)c2=O)cc1	> 100 µM	> 100 µM	> 100 µM	> 100 µM	> 100 µM	> 100 µM	13.8 µM	–	> 100 µM	> 100 µM	> 100 µM	–	–	–	–	–	–
COC(=O)c1ccc(/C=C2\Oc3ccccc3C2=O)cc1	> 100 µM	> 100 µM	> 100 µM	> 100 µM	54.4 µM	> 100 µM	> 100 µM	> 100 µM	–	–	> 100 µM	–	–	–	–	–	–
[N-]=[N+]=NC(c1cn(C2CC(O)C(CO)O2)c(=O)[nH]c1=O)C(Br)Br (stereo not given)	> 100 µM	> 100 µM	> 100 µM	> 100 µM	> 100 µM	> 100 µM	> 100 µM	> 100 µM	–	> 100 µM	–	–	–	–	–	–	–
CN(C(=O)C12C3C4C5C3C1(C(=O)C13C6C7C8C6C1C8C73)C5C42)C(C)(C)C (stereo not given)	> 50 µM	> 50 µM	> 50 µM	> 50 µM	> 26.9 µM	> 50 µM	> 50 µM	> 50 µM	> 50 µM	> 47.3 µM	–	–	–	–	–	–	–
